This is an account of results in patent US9828406B2, “Antitumor agent” (KINKI UNIVERSITY, priority 2011, dated 2017).

pIC50: −log10 of the molar value.

The test system of test [1] is urinary bladder cancer cells (T24). In words: Combination with doxorubicin, survival rate of tumor cells (WST-8). The class given is cell-based, human. The settings on record: T24, 10 μM doxorubicin alone. Here is the method:
(§1) For cell culture, RPMI1640 medium (manufactured by Gibco Co., Ltd.) and DMEM medium (manufactured by Gibco Co., Ltd.) were mixed in a ratio of 1:1 and supplied 7% FBS (fetal bovine serum, manufactured by Nichirei Biosciences Inc.) and antibiotic mixture (mixture of penicillin, streptomycin, amphotericin B Mix, 100-fold concentrated solution (Nakarai Co.). Trypsinized cells were diluted to 1×10^5 cells/ml and seeded at 400 μl/well in 48-well dishes. Immediately after seeding, the test compound (dissolved in DMSO) was added to a final concentration of 0.5%, cultured for 24 hours in a CO2 incubator under an atmosphere of 5% of CO2, at a temperature of 36° C. to 37° C. After culturing, WST-8 assay was performed. An activity value of DMSO control was set to 100%, and the activities of each cell to which the test compound was added were investigated.
(§2) To 400 μl of cells culture, 18 μl of Cell Count Reagent SF (manufactured by Nacalai Inc.) was added. After being cultured for 2 to 3 hours (in a case where activity is low, cultured for 19 hours) under an atmosphere of 5% of CO2, at a temperature of 36° C. to 37° C., the broth was stirred, and the amount of formazan produced in the broth was calculated from absorbance at a wavelength of 450 nm. Using a measured value at a wavelength of 600 nm as a control, OD450-OD600 was set to an activity value. […]
A general note: Tetrazolium dyes change colour on reduction, which living cells bring about.

In test [2] the test system is cervical cancer cells (HeLa). Put plainly: Combination with cisplatin, survival rate of tumor cells (WST-8). Type of test: cell-based, human. The procedure:
as §1, with “After culturing, WST-8 assay was performed. An activity value of DMSO control was set to 100%, and the activities of each cell to which the test compound was added were investigated.” left out
as §2
The survival rate of the tumor cells was calculated, in the same manner as in Example 4 except that 15 μM of the glycoside compound and 333 μM of cisplatin were added to the medium immediately after seeding the tumor cells. […]

The test system of test [3] is normal embryonic kidney-derived cells (HEK293F). Put plainly: WST-8 cell proliferation assay, normal embryonic kidney-derived cells. Type of test: cell-based. To be noted: cultured for 24 hours, WST-8 assay, DMSO control = 100%. The procedure: as §1
(§3) To 400 μl of cells culture, 18 μl of Cell Count Reagent SF (manufactured by Nacalai Inc.) was added. After being cultured for 2 to 3 hours (in a case where activity is low, cultured for 19 hours) under an atmosphere of 5% of CO2, at a temperature of 36° C. to 37° C., the broth was stirred, and the amount of formazan produced in the broth was calculated from absorbance at a wavelength of 450 nm. Using a measured value at a wavelength of 600 nm as a control, OD450-OD600 was set to an activity value.

The subject of test [4] is acute lymphoblastic leukemia T-cells (Molt-4). Put plainly: WST-8 cell proliferation assay, acute lymphoblastic leukemia T-cells. Type of test: cell-based, human. To be noted: Molt-4, cultured for 24 hours, WST-8 assay, DMSO control = 100%. Here is the method:
as §1, §2

In test [5] the test system is gastric cancer cells (MKN45). Put plainly: WST-8 cell proliferation assay, gastric cancer cells. The class given is cell-based, human. To be noted: MKN45, cultured for 24 hours, WST-8 assay, DMSO control = 100%. The procedure: as §1, §3
The subject of test [6] is renal cancer cells (ACHN). Put plainly: Combination with paclitaxel, survival rate of tumor cells (WST-8). Type of test: cell-based, human. To be noted: 29 nM paclitaxel alone. The procedure: as §1, with “After culturing, WST-8 assay was performed. An activity value of DMSO control was set to 100%, and the activities of each cell to which the test compound was added were investigated.” left out
as §2
A survival rate of the tumor cells was calculated, in the same manner as in Example 4 except that 5 μM of the glycoside compound and 29 nM of paclitaxel were added to the medium immediately after seeding the tumor cells.

With `COc1cccc2c1C(=O)c1c(O)c3c(c(O)c1C2=O)C[C@@](O)(C(=O)CO)C[C@@H]3O[C@H]1C[C@H](N)[C@H](O)[C@H](C)O1` [doxorubicin], in test [1], the “survival rate of the tumor cells” value was found to be 57.3%.
`N.N.[Cl][Pt][Cl]` [cisplatin]: the “Survival Rate after 19 Hours” value in test [2] (42 μM cisplatin alone, WST-8 incubated for 19 hours) is reported as 106.8%. For the same molecule, in test [2] (333 μM cisplatin alone, WST-8 incubated for 2 hours), the “Survival Rate after 2 Hours” value was 58.8%.
As usually defined, the pIC50 is −log10 of the IC50, conventionally taken in molar units. The low end stands for a large IC50, the high end for a small IC50. Consider `CCCCCCCC(=O)O[C@@H]1[C@H](OC[C@@H](O)[C@@H](O)[C@H](O)[C@H](O)[C@@H](O)CO)O[C@H](COC(=O)CCCCC)[C@@H](OC(=O)CCCCC)[C@@H]1OC(=O)CCCCC` [Preparation Example 24, D-glycero-D-galactoheptitol-1-yl 3,4,6-tri-O-hexanoyl-2-O-octanoyl-β-D-mannopyranoside], for which the negative logarithm of the IC50 (pIC50) in test [3] is 4.66; in test [4] it was 5.09; in test [5] it was 4.80.
As to `CC(=O)O[C@H]1C(=O)[C@@]2(C)[C@H]([C@H](OC(=O)c3ccccc3)[C@]3(O)C[C@H](OC(=O)[C@H](O)[C@@H](NC(=O)c4ccccc4)c4ccccc4)C(C)=C1C3(C)C)[C@]1(OC(C)=O)CO[C@@H]1C[C@@H]2O` [paclitaxel], the “survival rate of the tumor cells” value in test [6] worked out at 63.8%.
